Results as given in PubChem BioAssay (NCI).
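Five compound concentrations were applied to cells in 96-well plates for 48 hours; endpoints were derived by simple linear interpolation of the resulting dose-response curve. Definition used: TGI = concentration required for complete inhibition of growth.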

Experiments:
Assay in all cases: NCI tumour cell line growth inhibition, 48 h
OVCAR-8 ovarian = test system: OVCAR-8 ovarian
HL-60(TB) leukemia = test system: HL-60(TB) leukemia
KM20L2 colon = test system: KM20L2 colon
NCI/ADR-RES ovarian = test system: NCI/ADR-RES ovarian
RPMI-8226 leukemia = test system: RPMI-8226 leukemia
SF-268 CNS = test system: SF-268 CNS
HT29 colon = test system: HT29 colon
SK-MEL-28 melanoma = test system: SK-MEL-28 melanoma
DMS 114 small cell lung = test system: DMS 114 small cell lung
HCC-2998 colon = test system: HCC-2998 colon
SK-MEL-5 melanoma = test system: SK-MEL-5 melanoma
CCRF-CEM leukemia = test system: CCRF-CEM leukemia
DLD-1 colon = test system: DLD-1 colon
MCF7 breast = test system: MCF7 breast
NCI-H226 lung = test system: NCI-H226 lung
UACC-62 melanoma = test system: UACC-62 melanoma
A549 NSCLC = test system: A549 NSCLC
XF 498 CNS = test system: XF 498 CNS
UO-31 renal = test system: UO-31 renal
SK-OV-3 ovarian = test system: SK-OV-3 ovarian
OVCAR-4 ovarian = test system: OVCAR-4 ovarian
KM12 colon = test system: KM12 colon
HOP-18 NSCLC = test system: HOP-18 NSCLC
U251 CNS = test system: U251 CNS
LOX IMVI melanoma = test system: LOX IMVI melanoma
SNB-75 CNS = test system: SNB-75 CNS
UACC-257 melanoma = test system: UACC-257 melanoma
RXF 393 renal = test system: RXF 393 renal
IGROV1 ovarian = test system: IGROV1 ovarian
HCT-15 colon = test system: HCT-15 colon
DMS 273 small cell lung = test system: DMS 273 small cell lung
M19-MEL melanoma = test system: M19-MEL melanoma
HCT-116 colon = test system: HCT-116 colon
SN12K1 renal = test system: SN12K1 renal
MALME-3M melanoma = test system: MALME-3M melanoma
MOLT-4 leukemia = test system: MOLT-4 leukemia
K-562 leukemia = test system: K-562 leukemia
NCI-H23 lung = test system: NCI-H23 lung
COLO 205 colon = test system: COLO 205 colon
SN12C renal = test system: SN12C renal
OVCAR-5 ovarian = test system: OVCAR-5 ovarian
SK-MEL-2 melanoma = test system: SK-MEL-2 melanoma
SW-620 colon = test system: SW-620 colon
OVCAR-3 ovarian = test system: OVCAR-3 ovarian
P388 leukemia = test system: P388 leukemia
HOP-62 NSCLC = test system: HOP-62 NSCLC
NCI-H460 lung = test system: NCI-H460 lung
SF-295 CNS = test system: SF-295 CNS
A498 renal = test system: A498 renal
SNB-78 CNS = test system: SNB-78 CNS
SNB-19 CNS = test system: SNB-19 CNS
BT-549 breast = test system: BT-549 breast
SF-539 CNS = test system: SF-539 CNS
EKVX NSCLC = test system: EKVX NSCLC
PC-3 prostate = test system: PC-3 prostate
SR leukemia = test system: SR leukemia
MDA-MB-231 breast = test system: MDA-MB-231 breast
MDA-N = test system: MDA-N
ACHN renal = test system: ACHN renal
M14 melanoma = test system: M14 melanoma
LXFL 529 NSCLC = test system: LXFL 529 NSCLC
TK-10 renal = test system: TK-10 renal
HOP-92 NSCLC = test system: HOP-92 NSCLC
HS 578T breast = test system: HS 578T breast
T-47D breast = test system: T-47D breast
RXF-631 renal = test system: RXF-631 renal
DU-145 prostate = test system: DU-145 prostate
NCI-H522 lung = test system: NCI-H522 lung
MDA-MB-435 = test system: MDA-MB-435
CAKI-1 renal = test system: CAKI-1 renal
786-0 renal = test system: 786-0 renal

Compound: CCOCCOc1ccc(OCCOCC)cc1
- TGI (OVCAR-8 ovarian): 35.4 µM
- TGI (HL-60(TB) leukemia): 12.7 µM
- TGI (KM20L2 colon): 47.2 µM
- TGI (NCI/ADR-RES ovarian): 39.3 µM
- TGI (RPMI-8226 leukemia): 26.4 µM
- TGI (SF-268 CNS): 36 µM
- TGI (HT29 colon): 38.9 µM
- TGI (SK-MEL-28 melanoma): 40.8 µM
- TGI (DMS 114 small cell lung): 17.1 µM
- TGI (HCC-2998 colon): > 100 µM
- TGI (SK-MEL-5 melanoma): > 54 µM
- TGI (CCRF-CEM leukemia): 9.84 µM
- TGI (DLD-1 colon): 28.2 µM
- TGI (MCF7 breast): 32.9 µM
- TGI (NCI-H226 lung): > 73.1 µM
- TGI (UACC-62 melanoma): 38.7 µM
- TGI (A549 NSCLC): > 100 µM
- TGI (XF 498 CNS): 30.1 µM
- TGI (UO-31 renal): 26.9 µM
- TGI (SK-OV-3 ovarian): > 100 µM
- TGI (OVCAR-4 ovarian): 20.7 µM
- TGI (KM12 colon): > 100 µM
- TGI (HOP-18 NSCLC): 61.3 µM
- TGI (U251 CNS): > 100 µM
- TGI (LOX IMVI melanoma): 33.8 µM
- TGI (SNB-75 CNS): 52.8 µM
- TGI (UACC-257 melanoma): 32.3 µM
- TGI (RXF 393 renal): 33 µM
- TGI (IGROV1 ovarian): 38 µM
- TGI (HCT-15 colon): 40.3 µM
- TGI (DMS 273 small cell lung): > 58.4 µM
- TGI (M19-MEL melanoma): > 62.5 µM
- TGI (HCT-116 colon): 33.4 µM
- TGI (SN12K1 renal): 31.6 µM
- TGI (MALME-3M melanoma): 45.8 µM
- TGI (MOLT-4 leukemia): > 43 µM
- TGI (K-562 leukemia): 24.2 µM
- TGI (NCI-H23 lung): > 100 µM
- TGI (COLO 205 colon): 33.3 µM
- TGI (SN12C renal): 31.8 µM
- TGI (OVCAR-5 ovarian): > 100 µM
- TGI (SK-MEL-2 melanoma): > 63.7 µM
- TGI (SW-620 colon): 40.1 µM
- TGI (OVCAR-3 ovarian): > 49.3 µM
- TGI (P388 leukemia): > 100 µM
- TGI (HOP-62 NSCLC): > 100 µM
- TGI (NCI-H460 lung): > 73.7 µM
- TGI (SF-295 CNS): > 57.2 µM
- TGI (A498 renal): > 61.8 µM
- TGI (SNB-78 CNS): > 57.7 µM
- TGI (SNB-19 CNS): > 100 µM

Compound: O=C1CCC(C(=O)O)C2=C1CCCC2 (stereo not given)
- TGI (OVCAR-8 ovarian): > 100 µM
- TGI (BT-549 breast): > 100 µM
- TGI (HL-60(TB) leukemia): > 100 µM
- TGI (KM20L2 colon): > 100 µM
- TGI (NCI/ADR-RES ovarian): > 100 µM
- TGI (RPMI-8226 leukemia): > 100 µM
- TGI (SF-539 CNS): > 100 µM
- TGI (SF-268 CNS): > 100 µM
- TGI (HT29 colon): > 100 µM
- TGI (SK-MEL-28 melanoma): > 100 µM
- TGI (DMS 114 small cell lung): > 100 µM
- TGI (EKVX NSCLC): > 100 µM
- TGI (HCC-2998 colon): > 100 µM
- TGI (SK-MEL-5 melanoma): > 100 µM
- TGI (CCRF-CEM leukemia): > 100 µM
- TGI (DLD-1 colon): > 100 µM
- TGI (MCF7 breast): > 100 µM
- TGI (NCI-H226 lung): > 21.5 µM
- TGI (UACC-62 melanoma): > 100 µM
- TGI (PC-3 prostate): > 100 µM
- TGI (SR leukemia): > 100 µM
- TGI (MDA-MB-231 breast): > 100 µM
- TGI (A549 NSCLC): > 100 µM
- TGI (MDA-N): > 100 µM
- TGI (ACHN renal): > 100 µM
- TGI (M14 melanoma): > 100 µM
- TGI (XF 498 CNS): > 100 µM
- TGI (UO-31 renal): > 100 µM
- TGI (LXFL 529 NSCLC): > 100 µM
- TGI (SK-OV-3 ovarian): > 100 µM
- TGI (OVCAR-4 ovarian): > 100 µM
- TGI (KM12 colon): > 100 µM
- TGI (HOP-18 NSCLC): > 100 µM
- TGI (U251 CNS): > 29.8 µM
- TGI (LOX IMVI melanoma): > 100 µM
- TGI (SNB-75 CNS): > 100 µM
- TGI (UACC-257 melanoma): > 100 µM
- TGI (RXF 393 renal): > 100 µM
- TGI (IGROV1 ovarian): > 100 µM
- TGI (HCT-15 colon): > 100 µM
- TGI (DMS 273 small cell lung): > 100 µM
- TGI (M19-MEL melanoma): > 100 µM
- TGI (HCT-116 colon): > 100 µM
- TGI (TK-10 renal): > 100 µM
- TGI (MALME-3M melanoma): > 100 µM
- TGI (HOP-92 NSCLC): > 100 µM
- TGI (HS 578T breast): > 100 µM
- TGI (MOLT-4 leukemia): > 100 µM
- TGI (K-562 leukemia): > 100 µM
- TGI (T-47D breast): > 100 µM
- TGI (RXF-631 renal): > 100 µM
- TGI (NCI-H23 lung): > 100 µM
- TGI (COLO 205 colon): > 100 µM
- TGI (SN12C renal): > 100 µM
- TGI (OVCAR-5 ovarian): > 100 µM
- TGI (SK-MEL-2 melanoma): > 100 µM
- TGI (DU-145 prostate): > 100 µM
- TGI (SW-620 colon): > 100 µM
- TGI (NCI-H522 lung): > 100 µM
- TGI (OVCAR-3 ovarian): > 100 µM
- TGI (HOP-62 NSCLC): > 100 µM
- TGI (NCI-H460 lung): > 100 µM
- TGI (MDA-MB-435): > 100 µM
- TGI (SF-295 CNS): > 100 µM
- TGI (CAKI-1 renal): > 100 µM
- TGI (A498 renal): > 100 µM
- TGI (786-0 renal): > 100 µM
- TGI (SNB-78 CNS): > 100 µM
- TGI (SNB-19 CNS): > 100 µM
